# Measured values: patent publication US20150258059A1, “ANTIMICROBIAL AND RADIOPROTECTIVE COMPOUNDS” (BioDiem, Ltd, priority 2001, published 2015)
# Marks after values point to notes of the source that are not given here.
# Columns and labels:
# Staphylococcus aureus = assay: Agar plug diffusion, zone of retardation; details: plug impregnated at 0.5%
# Candida albicans [1] = assay: NCCLS broth macro-dilution MIC/MFC (RPMI); type: cell-based; details: Table 10, 4 day, 30° C.
# C. hyointestinalis 54/4 = assay: MIC/MMC against clinical strains of Campylobacter spp.; details: Table 18; clinical strain isolated from humans
# [2] = test system: Staphylococcus aureus strain 674; assay: Impregnated agar serial double dilutions; details: meat peptone agar
# [3] = test system: Salmonella typhimurium M-727; assay: Agar diffusion assay
# Epidermophyton floccosum = assay: M38-P microdilution MIC/MFC; type: cell-based; details: Table 16, Dermatophytes
# Enterococcus faecalis = assay: Rate of kill, viable counts; details: 512 μg/mL; at 9 h
# Candida albicans [4] = assay: M38-P microdilution MIC/MFC; type: cell-based; details: Table 16, 24 h, 35° C.
# [5] = test system: six bacterial test cultures; type: cell-based
# [6] = test system: Campylobacter jejuni RMIT FF3; assay: NCCLS broth microdilution MIC/MBC; type: cell-based; details: Table 9, 48 h
# F. chlamydosporum = assay: M38-P microdilution MIC/MFC; type: cell-based; details: Table 16, 48 h, 35° C.
# Corynebacterium B-670 = assay: Agar diffusion assay; type: cell-based
# [7] = test system: Conditional pathogenic enterobacteria gram-negative aerobic bacilli; type: cell-based; note: key: + sensitive strains; + moderately sensitive strains; − stable strains
# S. pyogenes = assay: Broth dilution bioassay, low inoculum; type: cell-based; details: in MHB
# Trichophyton = assay: Sensitivity of pathogenic fungi; type: cell-based; details: Inoculation 10^2
# Paecilomyces variotii = assay: M38-P microdilution MIC/MFC; type: cell-based; details: Table 16, 48 h, 35° C.
# Geotrichum M-158 = assay: Sensitivity of pathogenic fungi; type: cell-based; details: Inoculation 10^5
# Bacillus subtilis = assay: Rate of kill, viable counts; details: in 2 h
# Proteus vulgaris RMIT = assay: NCCLS broth microdilution MIC/MBC; type: cell-based; details: for MIC: Proteus vulgaris
# Acinetobacter B-681 = assay: Sensitivity of strains: suppression of growth; type: cell-based; details: Compound (1) 1.0%; antibiotics disc method
# Shigella sonnei B-720 = assay: Sensitivity of strains: suppression of growth; type: cell-based; details: Compound (1) 1.0%; antibiotics disc method
# Escherichia coli B-683 = assay: Sensitivity of strains: suppression of growth; type: cell-based; details: Compound (1) 1.0%; antibiotics disc method
# Fusarium graminearum = assay: microbe, parasite or virus in culture; type: cell-based
# [8] = test system: Enterococcus faecalis museum strain; assay: Impregnated agar serial double dilutions; details: meat peptone agar
# Bacteroides fragilis = assay: NCCLS broth microdilution MIC/MBC; type: cell-based; details: for MIC: Bacteroides fragilis
# [9] = test system: Shigella flexneri M-2A6907; assay: Sensitivity of strains: suppression of growth; type: cell-based; details: Compound (1) 1.0%; antibiotics disc method
smiles,measurement,setting,value
C/C(=C\c1ccc2c(c1)OCO2)[N+](=O)[O-] [Compound (1)],Size of zone of retardation of the growth,Staphylococcus aureus,6.5
same,MIC,"Candida albicans [1]; Candida albicans, 96 h",8 µg/mL
same,MMC,Candida albicans [1],8 µg/mL
same,MMC,C. hyointestinalis 54/4,2
same,Minimal % Compound (1) giving complete inhibition of test culture,[2],0.015%
same,Diameter of zone of Growth inhibition,[3]; Concentration in disc 0.1%,24# mm
same,Diameter of zone of Growth inhibition,[3]; Concentration in disc 1.0%,30# mm
same,Diameter of zone of Growth inhibition,[3]; Concentration in disc 2.0%,32# mm
same,MIC,Epidermophyton floccosum; Epidermophyton floccosum,0.5 µg/mL
same,MMC,Epidermophyton floccosum,16 µg/mL
same,Log reduction in viable count,Enterococcus faecalis,0.6 at 9 h
same,MIC,"Candida albicans [4]; Candida albicans, read-out: MIC",8 µg/mL
same,MMC,Candida albicans [4],8 µg/mL
same,Average zone of retardation,[5],5.17
same,MIC,"[6]; Campylobacter jejuni, RMITFF3",2 µg/mL
same,MMC,[6],2 µg/mL
same,MMC,F. chlamydosporum,8 µg/mL
same,MIC,F. chlamydosporum; read-out: MIC,8 µg/mL
same,Diameter of zone of Growth inhibition,Corynebacterium B-670; Concentration in disc 0.1%,31# mm
same,Diameter of zone of Growth inhibition,Corynebacterium B-670; Concentration in disc 1.0%,35# mm
same,Diameter of zone of Growth inhibition,Corynebacterium B-670; Concentration in disc 2.0%,40# mm
same,pH (in 50% v./v. ethanol),,approximately neutral
same,Suppression of Growth (+/−),[7],+
same,concentration inhibiting low inoculum,S. pyogenes,1 µg/mL
same,Number of microbes: Growth,Trichophyton; 0.1%,0
same,Number of microbes: Retardation,Trichophyton; 0.1%,10^7
same,Number of microbes: Growth,Trichophyton; 0.5%,0
same,Number of microbes: Retardation,Trichophyton; 0.5%,10^7
same,Number of microbes: Growth,Trichophyton; 2.0%,0
same,Number of microbes: Retardation,Trichophyton; 2.0%,10^7
same,MIC,"Paecilomyces variotii; Paecilomyces variotii, read-out: MIC",1 µg/mL
same,MMC,Paecilomyces variotii,2 µg/mL
same,Number of microbes: Growth,Geotrichum M-158; 0.1%,0
same,Number of microbes: Retardation,Geotrichum M-158; 0.1%,10^4
same,Number of microbes: Growth,Geotrichum M-158; 0.5%,0
same,Number of microbes: Retardation,Geotrichum M-158; 0.5%,10^5
same,Number of microbes: Growth,Geotrichum M-158; 2.0%,0
same,Number of microbes: Retardation,Geotrichum M-158; 2.0%,10^5
same,Log reduction in viable count,Bacillus subtilis; 256 μg/mL,3.8 in 2 h
same,Log reduction in viable count,Bacillus subtilis; 512 μg/mL,4 in 2 h
same,MIC,Proteus vulgaris RMIT,128 µg/mL
same,MIC,Proteus vulgaris RMIT; 24 h,128 µg/mL
same,MMC,"Proteus vulgaris RMIT; Table 9, 35° C., 24 hours",256 µg/mL
same,MMC,"Proteus vulgaris RMIT; Table 17, 2 or 3 replicates",128 µg/mL
same,Suppression of Growth (+/−),Acinetobacter B-681,+
same,Suppression of Growth (+/−),Shigella sonnei B-720,+
same,Suppression of Growth (+/−),Escherichia coli B-683,+
same,MIC,"Fusarium graminearum; Fusarium graminearum, 168 h",4 µg/mL
same,MMC,"Fusarium graminearum; Table 10, 7 day, 30° C.",8 µg/mL
same,Minimal % Compound (1) giving complete inhibition of test culture,[8],0.015%
same,MIC,"Bacteroides fragilis; Table 9, 48 h",16 µg/mL
same,MIC,"Bacteroides fragilis; Table 17, 2 or 3 replicates",16 µg/mL
same,MMC,"Bacteroides fragilis; Table 9, 48 h",32 µg/mL
same,MMC,"Bacteroides fragilis; Table 17, 2 or 3 replicates",32 µg/mL
same,Suppression of Growth (+/−),[9],+
